Measurements: patent publication US20170058288A1, “OSNF-YA7 GENE FOR INCREASING DROUGHT STRESS RESISTANCE OF PLANT AND USE THEREOF” (SNU R&DB FOUNDATION, priority 2014, published 2017)

Tests used:
[1] = tested on: OsNF-YA4; test: OsNF-YA4 gene expression in response to ABA treatment (qRT-PCR); format: in vivo, rice (Oryza sativa); details: short-term treatment (24 hours) with 10 and 100 μM ABA, NT rice plant, compared to untreated control group
Description: (§1) To analyze expression patterns of OsNF-YA4 and OsNF-YA7 gene in response to abiotic stress, non-transgenic rice plants (NT plants; breed—“Nakdong”) were grown in soil for 4 week in green house. The whole plant of a 4-week old non-transgenic plant was air-dried for 3 hrs for drought stress treatment. For the treatment of salt stress, whole plants were transferred to a solution containing 200 mM of NaCl and kept for 24 hours. For the treatment of low temperature stress, whole plants were transferred to a 4° C. low temperature chamber and kept for 24 hrs. For the analysis of OsNF-YA4 and OsNF-YA7 gene expression pattern in response to ABA, NT plant were grown in MS media for 2 week in growth chamber. For the short-term treatment with ABA, the whole plants were transferred to a solution containing 10 or 100 μM ABA and treated with the solution for 24 hours. For the long-term treatment with ABA, NT plant seeds were planted and grown on MS media supplemented with 0, 0.5, 1 or 3 μM of ABA for 2 weeks.
(§2) Leaf and root tissues of a plant which has been treated with either abiotic stress or absicic acid were collected and frozen. […] To analyze the gene expression level, quantitative PCR was carried out by using Mx3000p real-time PCR machine and Platinum® SYBR® Green qPCR SuperMix-UDG system (Invitrogen, USA). […]

[2] = tested on: OsNF-YA7; test: OsNF-YA7 gene expression in response to ABA treatment (qRT-PCR); format: in vivo, rice (Oryza sativa); details: short-term treatment (24 hours) with 10 and 100 μM ABA, NT rice plant, compared to untreated control group
Description: as §1, §2

CC1=CC(=O)CC(C)(C)[C@@]1(O)/C=C/C(C)=C\C(=O)O [ABA, Abscisic acid]
increase in OsNF-YA4 expression level [1]: 4 fold | decrease in OsNF-YA7 expression level [2]: approximately 30%
